Measured values published in US20180008612A1 (priority 2016, published 2018).
Several values for one entry are separate records, joined by “and”; a condition that tells them apart may be missing. Identical values can stand only once. Like-named read-outs stand apart in the source and are kept apart here.

Legend:
[1] = Antioxidant effect on galantamine stability under normal and stress conditions; assay type: physicochemical
[2] = Skin permeation, Franz diffusion cells; assay type: in vitro ADME, human; conditions: for Enhancement Ratio: human
Method: The flux can be measured with a standard procedure using Franz diffusion cells, and the experiments were done on human cadaver skin. With Franz cells, in each Franz diffusion cell a disc (diameter of 25 mm) of human cadaver skin is placed on the receptor compartment. A transdermal delivery system is cut the same size as the skin and placed over the diffusion area in the center of the receptor. The donor compartment is then added and clamped to the assembly. At time 0, receptor medium solution 14 mL is added into the receptor compartment and the cell maintained at 32° C. Samples of the receptor compartment are taken periodically to determine the skin flux and analyzed by HPLC.
Skin permeation of various formulations were tested. The results are provided in FIGS. 1, and 2 and Tables 5 and 6. Higher the amount of the galantamine in the adhesives will increase the penetration, but when over the saturation point, the transdermal system will crystalize, and result a low penetration rate.
When adding an enhancer, it might improve the penetration rate. […] When increase the amount of the enhancer, it might not improve the penetration rate.
A co-solvent helps dissolving the drug in the adhesive but it might also help with the penetration rate.

[3] = galantamine with the antioxidant (label), 25′C
[4] = galantamine with the antioxidant (label), 60′C-14 D
[5] = galantamine with the antioxidant (label), 80′C-1 D
[6] = galantamine with the antioxidant (label), 80′C-4 D

| Molecule | Total Impurity Amount % [1, 3] | Total Impurity Amount % [1, 4] | Total Impurity Amount % [1, 5] | Total Impurity Amount % [1, 6] | other results |
| --- | --- | --- | --- | --- | --- |
| CCCCCCCCCCCCCCCC(=O)OC[C@H](O)[C@H]1OC(=O)C(O)=C1O [Ascorbyl Palmitate, ascorbyl palmitate] | 0.12% | 0.58% | 0.28% | 1.13% | – |
| O=[N+]([O-])C(Br)(CO)CO [Bronopol, bronopol] | 0.18% | 0.81% | 0.69% | 1.82% | – |
| Cc1cc(C(C)(C)C)c(O)c(C(C)(C)C)c1 [Butylated Hydroxytoluene (BHT), butylated hydroxytoluene] | 0.11% | 0.33% | 0.51% | 1.18% | – |
| O=C1O[C@H]([C@H](O)CO)C(O)=C1O [Erythorbic Acid, erythorbic acid] | 0.50% | – | – | 0.87% | Total Impurity Amount % [1]: 1.35% and 0.74% |
| CCCCCCCC/C=C\CCCCCCCC(=O)OCC [Ethyl Oleate, ethyl oleate] | – | – | – | – | Enhancement Ratio ([2]; 3 % w/w): 2 |
| CCCCCCCCCCCCCC(=O)OC(C)C [IPM, isopropyl myristate] | – | – | – | – | Enhancement Ratio ([2]; 3 % w/w): 2; Enhancement Ratio ([2]; 5 % w/w): 1 |
| OCC(O)CS (stereo not shown) [Monothioglycerol, monothioglycerol] | 0.16% | 1.09% | 0.51% | 1.49% | – |
| CCCCCCCC/C=C\CCCCCCCC(=O)O [Oleic Acid, oleic acid] | – | – | – | – | Enhancement Ratio ([2]; 3 % w/w): 1 |
| CC(O)CO (stereo not shown) [Propylene Glycol, propylene glycol] | – | – | – | – | Enhancement Ratio ([2]; 5 % w/w): 4; Enhancement Ratio ([2]; 10 % w/w): 7 |
| O=S([O-])[O-].[Na+].[Na+] [Sodium Sulfite, sodium sulfite] | 0.14% | – | – | 1.69% | Total Impurity Amount % [1]: 1.04% and 0.74% |
| O=S([O-])([O-])=S.[Na+].[Na+] [Sodium Thiosulfate, sodium thiosulfate] | – | – | – | – | Total Impurity Amount % [1]: 0.13% and 1.02% and 0.67% and 2.20% |
| O=S([O-])S(=O)(=O)[O-].[Na+].[Na+] [Sodium metabisulfite, sodium metabisulfite] | 0.17% | 0.45% | 0.14% | 0.93% | – |
| O=S=O [Sulfur Dioxide, sulfur dioxide] | 0.16% | 1.04% | 0.54% | 1.83% | – |
| CCOCCOCCO [Transcutol P, diethylene glycol monoethyl ether] | – | – | – | – | penetration rate [2]: improves the penetration rate; Enhancement Ratio ([2]; 5 %): 5; Enhancement Ratio ([2]; 5 % w/w): 4 |
| vitamin E | 0.12% | – | – | 1.77% | Total Impurity Amount % [1]: 0.84% and 0.69% |
